This note sets out measurements from PubChem BioAssay (NCI).

Where “and” joins values, the source holds several entries; their conditions need not be identical. Identical values can stand only once.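 Dose response: 5 concentrations. Exposure: 48 h. Format: 96-well plates. Endpoint: linear interpolation; highest concentration if not reached. The concentration for 50% growth inhibition is given as GI50. The concentration for full growth arrest is given as TGI.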

Some test systems named below: DMS 114 small cell lung; LXFL 529 NSCLC; SNB-78 CNS; RXF-631 renal; XF 498 CNS; DLD-1 colon; T-47D breast; MCF7 breast; MDA-N.
Holding throughout (experiment): NCI tumour cell line growth inhibition, 48 h

As to `CCCCCCCCCC1C(C)c2c([nH]c3ccccc23)C2C(=O)N(c3ccccc3)C(=O)C21` (configuration not stated), the TGI in the test on DMS 114 small cell lung was 28.4 µM; with LXFL 529 NSCLC, 50.4 µM; in the test on SNB-78 CNS, greater than 100 µM; in the test with RXF-631 renal it was 11.7 µM; in the test on XF 498 CNS it was 23.2 µM; with DLD-1 colon, 30.2 µM.
For `O=C(O)CCCCCO`, the TGI in the test on DMS 114 small cell lung, in the test on LXFL 529 NSCLC, in the test on SNB-78 CNS, with XF 498 CNS and with DLD-1 colon was greater than 100 µM each time.
Consider `C/C(=N\NC(=O)c1ccccc1O)c1cccc(/C(C)=N/NC(=O)c2ccccc2O)n1`, for which the GI50 was 2.3 µM in the test on T-47D breast, 7.8 µM in the test on MCF7 breast, 46.2 µM in the test with SNB-78 CNS and 2.62 µM in the test on DLD-1 colon. For the same molecule, the TGI was greater than 100 µM with T-47D breast; greater than 100 µM in the test on MCF7 breast; 36.9 µM in the test on DMS 114 small cell lung; 53.1 µM in the test on LXFL 529 NSCLC; greater than 100 µM with SNB-78 CNS; 46.7 µM in the test with XF 498 CNS. Further, the TGI with MDA-N and with DLD-1 colon was greater than 100 µM each time.
Consider `COc1cc(C(=O)C/C(CCC(=O)Nc2ccc(Cl)cc2Cl)=N/NC(=O)C(N)=O)ccc1O`, for which the TGI with DMS 114 small cell lung, in the test with LXFL 529 NSCLC, in the test with SNB-78 CNS, in the test with RXF-631 renal, with XF 498 CNS and with DLD-1 colon was greater than 100 µM each time.
As to `Cc1c(C(=O)/C=C/c2ccccc2Cl)[n+](=O)c2ccccc2n1[O-]`, the TGI in the test on DMS 114 small cell lung worked out at 20.1 µM; with LXFL 529 NSCLC it was 20 µM; in the test on SNB-78 CNS, 44.3 µM; in the test on RXF-631 renal it was 36.5 µM; with DLD-1 colon it was 19.8 µM.
The like results for `O=C(CC(=O)Nc1ccccc1O)Nc1ccccc1O` were, in that order, 12.6 µM, 63.9 µM, greater than 100 µM, 49.9 µM and 40.3 µM.
`CCOC(=O)C(Cc1ccccc1)NC(=O)OC(C)(C)C` (configuration not stated): the TGI with DMS 114 small cell lung, in the test on LXFL 529 NSCLC, in the test with SNB-78 CNS, in the test on RXF-631 renal, in the test on XF 498 CNS and with DLD-1 colon was greater than 100 µM in each case.
Consider `Nc1ncnc2c(C3OC(CO)C(O)C3O)scc12` (configuration not stated), for which the TGI in the test on DMS 114 small cell lung was 0.548 µM and 0.31 µM; in the test with LXFL 529 NSCLC, 12.9 µM; in the test on XF 498 CNS it was 0.353 µM and 0.581 µM. Further, in the test on LXFL 529 NSCLC, the GI50 was 0.365 µM.
On to `CCOC(=O)N1N=NC2C3OC(C[C@@]3(C#N)OC(C)=O)[C@H]21` (some centres not stated), for which the TGI in the test with LXFL 529 NSCLC, in the test with SNB-78 CNS, with RXF-631 renal, with XF 498 CNS and in the test with DLD-1 colon was greater than 100 µM in each case.
On to `COc1cc2ccnc(-c3c4ccccc4c(N)c4c(OC)c(OC)ccc34)c2cc1OC`, for which the TGI in the test with DMS 114 small cell lung came to 4.71 µM; with LXFL 529 NSCLC, 15.7 µM; with SNB-78 CNS, 18.3 µM; with XF 498 CNS, 6.75 µM; in the test with DLD-1 colon, 16.6 µM.
Take `NC(=S)NNC(=O)CCC(=O)Nc1ccc(Cl)cc1Cl`: the TGI was greater than 100 µM in the test with DMS 114 small cell lung; 86.9 µM with LXFL 529 NSCLC; greater than 100 µM in the test with SNB-78 CNS; greater than 100 µM in the test with RXF-631 renal; greater than 100 µM in the test on DLD-1 colon.
With `Cc1ccc(NC(=O)CC/C(CC(=O)c2ccc(F)cc2)=N\NC(=O)C(=O)NN)cc1C`, the TGI with DMS 114 small cell lung, with LXFL 529 NSCLC, in the test with SNB-78 CNS, in the test with RXF-631 renal and in the test with DLD-1 colon was greater than 100 µM in each case.
`CC(=O)Nc1ccccc1-c1cnc2ccccc2n1`: the TGI with DMS 114 small cell lung, in the test with LXFL 529 NSCLC, in the test on SNB-78 CNS, in the test on XF 498 CNS and in the test with DLD-1 colon was greater than 100 µM throughout.
Turning to `Cc1ccccc1NC(=O)C1C(=O)N(c2ccccc2C)C(=O)/C1=N\N` (configuration not stated), the TGI with DMS 114 small cell lung, with LXFL 529 NSCLC, in the test on SNB-78 CNS, in the test with RXF-631 renal and in the test with DLD-1 colon was greater than 100 µM each time.
Consider `CC(=O)OC1C/C(C)=C/CCC(C)/C=C/C2(C)CCC(C(C)(C)O)C12` (configuration not stated), for which the TGI in the test with DMS 114 small cell lung, in the test on LXFL 529 NSCLC, in the test on SNB-78 CNS, in the test with XF 498 CNS and with DLD-1 colon was greater than 100 µM throughout.
With `COc1cc2c(c(OC)c1OC)-c1ccc(SC)c(=O)cc1[C@@H](NCc1cccc(C#N)c1)CC2`, the GI50 in the test on DMS 114 small cell lung, in the test on LXFL 529 NSCLC, in the test with XF 498 CNS and in the test on DLD-1 colon was less than 0.0075 µM in each case. The TGI was 0.0347 µM and < 0.0075 µM with DMS 114 small cell lung; greater than 75 µM with LXFL 529 NSCLC; 21.6 µM in the test with RXF-631 renal; less than 0.0075 µM with XF 498 CNS; greater than 75 µM in the test on DLD-1 colon.
Consider `CN(C)CC/C(=N\Nc1ccc(Cl)c(Cl)c1)c1ccccc1`, for which the TGI in the test with DMS 114 small cell lung was determined as 3.86 µM; in the test with LXFL 529 NSCLC, 2.9 µM; in the test on SNB-78 CNS it was 5.65 µM; with DLD-1 colon, 10 µM.
